In PubChem BioAssay (NCI):
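Growth conditions: 96-well plates. Treatment: test compound, 48 hours, 5 concentrations. Analysis: linear interpolation between bracketing concentrations; unreached endpoints set to highest concentration. TGI: concentration producing complete growth inhibition.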

Key:
Assay in all cases: NCI tumour cell line growth inhibition, 48 h
[1] = test system: SK-MEL-5 melanoma
[2] = test system: IGROV1 ovarian
[3] = test system: MDA-MB-231 breast
[4] = test system: HL-60(TB) leukemia
[5] = test system: HCT-116 colon
[6] = test system: PC-3 prostate
[7] = test system: HCT-15 colon
[8] = test system: MOLT-4 leukemia
[9] = test system: OVCAR-5 ovarian
[10] = test system: BT-549 breast
[11] = test system: HOP-92 NSCLC
[12] = test system: UACC-257 melanoma
[13] = test system: KM12 colon
[14] = test system: RPMI-8226 leukemia
[15] = test system: A549 NSCLC
[16] = test system: SNB-19 CNS
[17] = test system: CAKI-1 renal
[18] = test system: HS 578T breast
[19] = test system: NCI-H23 lung
[20] = test system: ACHN renal
[21] = test system: SF-268 CNS
[22] = test system: A498 renal
[23] = test system: SK-MEL-2 melanoma
[24] = test system: 786-0 renal
[25] = test system: HT29 colon
[26] = test system: HOP-62 NSCLC
[27] = test system: MCF7 breast
[28] = test system: NCI-H226 lung
[29] = test system: UO-31 renal
[30] = test system: NCI/ADR-RES ovarian
[31] = test system: M14 melanoma
[32] = test system: HCC-2998 colon
[33] = test system: EKVX NSCLC
[34] = test system: SNB-75 CNS
[35] = test system: T-47D breast
[36] = test system: COLO 205 colon
[37] = test system: OVCAR-3 ovarian
[38] = test system: NCI-H460 lung
[39] = test system: MDA-MB-435
[40] = test system: SW-620 colon
[41] = test system: CCRF-CEM leukemia
[42] = test system: SK-OV-3 ovarian
[43] = test system: SF-539 CNS
[44] = test system: DU-145 prostate
[45] = test system: MDA-N
[46] = test system: SK-MEL-28 melanoma
[47] = test system: SF-295 CNS
[48] = test system: MALME-3M melanoma
[49] = test system: LOX IMVI melanoma
[50] = test system: OVCAR-4 ovarian
[51] = test system: SR leukemia
[52] = test system: TK-10 renal
[53] = test system: NCI-H522 lung
[54] = test system: UACC-62 melanoma
[55] = test system: OVCAR-8 ovarian
[56] = test system: U251 CNS
[57] = test system: RXF 393 renal
[58] = test system: K-562 leukemia
[59] = test system: SN12C renal

SMILES: Cc1ccc(C(=O)CCl)o1
- TGI [1]: > 10 µM
- TGI [2]: > 10 µM
- TGI [3]: > 10 µM
- TGI [4]: 4.22 µM
- TGI [5]: 6.62 µM
- TGI [6]: > 10 µM
- TGI [7]: > 10 µM
- TGI [8]: 5.68 µM
- TGI [9]: > 9.57 µM
- TGI [10]: > 10 µM
- TGI [11]: > 10 µM
- TGI [12]: > 10 µM
- TGI [13]: > 10 µM
- TGI [14]: 5.42 µM
- TGI [15]: > 10 µM
- TGI [16]: > 10 µM
- TGI [17]: > 7.23 µM
- TGI [18]: > 10 µM
- TGI [19]: > 10 µM
- TGI [20]: > 10 µM
- TGI [21]: > 10 µM
- TGI [22]: > 10 µM
- TGI [23]: > 10 µM
- TGI [24]: 9.71 µM
- TGI [25]: > 10 µM
- TGI [26]: > 10 µM
- TGI [27]: > 10 µM
- TGI [28]: > 10 µM
- TGI [29]: > 6.21 µM
- TGI [30]: > 10 µM
- TGI [31]: > 10 µM
- TGI [32]: > 10 µM
- TGI [33]: > 10 µM
- TGI [34]: > 10 µM
- TGI [35]: > 7.79 µM
- TGI [36]: > 8.18 µM
- TGI [37]: > 10 µM
- TGI [38]: > 10 µM
- TGI [39]: > 10 µM
- TGI [40]: 5 µM
- TGI [41]: > 7.83 µM
- TGI [42]: > 10 µM
- TGI [43]: > 10 µM
- TGI [44]: > 10 µM
- TGI [45]: > 10 µM
- TGI [46]: > 10 µM
- TGI [47]: > 10 µM
- TGI [48]: > 8.31 µM
- TGI [49]: 8.76 µM
- TGI [50]: > 10 µM
- TGI [51]: > 10 µM
- TGI [52]: > 10 µM
- TGI [53]: > 5.46 µM
- TGI [54]: > 10 µM
- TGI [55]: > 6.61 µM
- TGI [56]: > 10 µM
- TGI [57]: > 10 µM
- TGI [58]: > 10 µM
- TGI [59]: > 10 µM

SMILES: Clc1ccc(C2c3ccccc3-c3nc4ccccc4n32)cc1 (stereo not drawn)
- TGI [1]: > 100 µM
- TGI [2]: > 86.1 µM
- TGI [3]: > 100 µM
- TGI [4]: > 83.3 µM
- TGI [5]: > 53.3 µM
- TGI [6]: > 77.1 µM
- TGI [7]: > 100 µM
- TGI [8]: > 51.7 µM
- TGI [9]: > 75 µM
- TGI [10]: > 100 µM
- TGI [11]: > 100 µM
- TGI [12]: > 100 µM
- TGI [13]: > 100 µM
- TGI [14]: > 65 µM
- TGI [15]: > 78.7 µM
- TGI [16]: > 64.8 µM
- TGI [17]: > 100 µM
- TGI [18]: > 100 µM
- TGI [19]: > 100 µM
- TGI [20]: > 100 µM
- TGI [21]: > 63.9 µM
- TGI [22]: > 79.9 µM
- TGI [23]: > 65.4 µM
- TGI [24]: 51 µM
- TGI [25]: > 88.9 µM
- TGI [26]: 62.8 µM
- TGI [27]: > 68.1 µM
- TGI [28]: > 64.5 µM
- TGI [29]: > 60.5 µM
- TGI [30]: > 68.2 µM
- TGI [31]: 99 µM
- TGI [32]: > 75.2 µM
- TGI [33]: > 73.9 µM
- TGI [34]: > 100 µM
- TGI [35]: > 100 µM
- TGI [36]: > 100 µM
- TGI [37]: 37.2 µM
- TGI [38]: > 100 µM
- TGI [39]: > 100 µM
- TGI [40]: > 100 µM
- TGI [41]: > 100 µM
- TGI [42]: > 39 µM
- TGI [43]: > 95.4 µM
- TGI [44]: > 100 µM
- TGI [45]: > 100 µM
- TGI [46]: > 100 µM
- TGI [47]: > 36.6 µM
- TGI [48]: 82.3 µM
- TGI [49]: 59.2 µM
- TGI [50]: > 73 µM
- TGI [51]: > 54.4 µM
- TGI [52]: > 100 µM
- TGI [53]: 67.9 µM
- TGI [54]: > 69.4 µM
- TGI [55]: > 79.5 µM
- TGI [56]: > 100 µM
- TGI [57]: 17.8 µM
- TGI [58]: > 100 µM
- TGI [59]: > 100 µM
